Key:
C. albicans cells [1] = assay: Hst-5 localization studies by fluorescence microscopy; assay type: cell-based, Candida albicans
Protocol: (§1) The intracellular localization of FITC-Hst-5 (5, 10, 20, and 50 µM) and FITC-m68 (5, 10, 20, 50, and 200 µM) was investigated either alone or in a double-labeling experiment using FM4-64 (Molecular Probes, Inc. Eugene, OR). Yeast cells in 50 µl (∼10^6 cells/ml) were incubated for 30 minutes at 30°C with 10 µM FITC-Hst-5 and 10 µM FM4-64; the cells were then washed twice with 10 mM NaN3 and 10 mM NaF in 20 mM PBS buffer, and analyzed immediately by wide-field fluorescence microscopy.
(§2) Wide-field fluorescence images were obtained on either Zeiss Axioplan 2 or the inverted Zeiss Axio Observer.Z1 Microscope (Carl Zeiss MicroImaging, Inc. Thornwood, NY) fluorescent system, equipped with the AttoArc HBO 100 and the X-Cite series 120 mercury lamps, respectively. Images were taken using a 100× NA 1.4 objective. Both fluorescence microscopes were equipped with GFP, RFP, and DAPI filter sets.

C. albicans myo5 cells = assay: FITC-Hst-5 localization in myo5 mutant cells by flow cytometry; assay type: cell-based, Candida albicans; settings: 10 µM FITC-Hst-5 and 10 µM FM4-64, 10 minutes, 30°C
Protocol: The intracellular localization of FITC-Hst-5 (5, 10, 20, and 50 µM) and FITC-m68 (5, 10, 20, 50, and 200 µM) was investigated either alone or in a double-labeling experiment using FM4-64 (Molecular Probes, Inc. Eugene, OR). […]
(§3) To depolarize F-actin, cells were treated with either 5 µM cytochalasin A or 50 µM latrunculin A (Sigma, St. Louis, MO) for 1 hour at room temperature. The control cells (wild-type and myo5) were treated with the equivalent volume of the DMSO solvent (0.5%). The cells were then exposed to 5 µM of FITC-Hst-5 for 30 minutes at 30°C. The cells were then washed twice with buffer containing NaN3 and NaF and analyzed by wide-field fluorescence microscopy and flow cytometry.
(§4) The distribution of FITC-labeled Hst-5 over the cell population was investigated by using a dual laser fluorescence-activated cell sorter (BD FACSCalibur System, Becton Dickinson, San Jose, CA). The results were analyzed with the software package CellQuest Pro (version 5.1.1) provided by Beckton Dickinson.

C. albicans cells [2] = assay: Concentration-dependent localization of FITC-Hst-5 by flow cytometry (FACS analysis); assay type: cell-based, Candida albicans; settings: 30°C, ~10^6 cells/ml; for Percent of population: M2 (Hst-5 localized to the cytoplasm): high intensity peak; for Percent of population: M1 (Hst-5 localized to the vacuole): low intensity peak
Protocol: as §1, §4

[3] = liposome model system; cited from earlier work
Protocol: Histatins are a family of low-molecular weight histidine-rich cationic peptides that are found specifically in human salivary secretions. […] It kills C. albicans in vitro at physiological concentrations (15–30 µM),[4]. Structural studies of Hst-5 have shown that it takes on a random coil structure in aqueous solvents and adopts a largely α-helical conformation in non-aqueous solutions [5],[6]. Many antimicrobial cationic peptides form either α ...

C. albicans cells [4] = assay type: cell-based, Candida albicans; settings: 10 µM FITC-Hst-5, 30 minutes, 30°C, cell sorting, ~200 cells plated on YPD, overnight 30°C, triplicate cultures
Protocol: C. albicans cells were incubated for 30 minutes with 10 µM of FITC-Hst-5 at 30°C. The cells were then washed twice with 20 mM PBS buffer and under went flow cytometric cell sorting using the DAKO Cytomation MoFlo Flow Cytometer (DAKO, Glostrup, Denmark). The results were analyzed on a PC using the software package Summit (version 4.0) provided by DAKO. The cells were sorted by gating the two peaks of the histogram representing vacuolar and cytoplasmic localization of Hst-5. Cellular localization of Hst-5 was confirmed with fluorescence microscopy. The sorted cells were then plated onto YPD plates and incubated overnight at 30°C (data as a mean±1SD of triplicate cultures).

[5] = tested on: C. albicans vps36 and snf7 mutant cells; assay: Hst-5 localization in vps36 and snf7 mutant cells by fluorescence microscopy; assay type: cell-based, Candida albicans; settings: 10 µM FITC-Hst-5 and 10 µM FM4-64, 30 minutes, 30°C
Protocol: as §1, §2

S. cerevisiae [6] = settings: cited from earlier work
C. glabrata [7] = settings: cited from earlier work
[8] = tested on: C. albicans wild-type cells; assay: Hst-5 localization in cells treated with latrunculin A or cytochalasin A; assay type: cell-based, Candida albicans; settings: cells pre-treated with 50 µM latrunculin A or 5 µM cytochalasin A for 60 minutes at room temperature, then 5 µM FITC-Hst-5, 30 minutes, 30°C
Protocol: as §3

C. albicans = tested on: C. albicans; set-up: method as in 4 sources, one per row (each row's own in cited_ref): ref 3, 4 = [3]; PMID 2406266; 3 Raj PA Edgerton M Levine MJ 1990 Salivary histatin 5: dependence of sequence, chain length, and helical conformation for candidacidal activity. J Biol Chem 265 3898 3905 2406266 || [4]; PMID 1855975; doi:10.1128/iai.59.8.2549-2554.1991; 4 Xu T Levitz SM Diamond RD Oppenheim FG 1991 Anticandidal activity of major human salivary histatins. Infect Immun 59 2549 2554 1855975 10.1128/iai.59.8.2549-2554.1991 PMC258054 ||| ref 37 = [37]; PMID 8945538; doi:10.1128/iai.64.12.5000-5007.1996; 37 Tsai H Raj PA Bobek LA 1996 Candidacidal activity of recombinant human salivary histatin-5 and variants. Infect Immun 64 5000 5007 8945538 10.1128/iai.64.12.5000-5007.1996 PMC174480 ||| ref 10, 13, 49 = [10]; PMID 10066791; doi:10.1074/jbc.274.11.7286; 10 Helmerhorst EJ Breeuwer P van't Hoff W Walgreen-Weterings E Oomen LC 1999 The cellular target of histatin 5 on Candida albicans is the energized mitochondrion. J Biol Chem 274 7286 7291 10066791 10 || [13]; PMID 10471575; doi:10.1128/aac.43.9.2256; 13 Xu Y Ambudkar I Yamagishi H Swaim W Walsh TJ 1999 Histatin 3-mediated killing of Candida albicans : effect of extracellular salt concentration on binding and internalization. Antimicrob Agents Chem || [49]; PMID 11083804; doi:10.1128/iai.68.12.6848-6856.2000; 49 Koshlukova SE Araujo MW Baev D Edgerton M 2000 Released ATP is an extracellular cytotoxic mediator in salivary histatin 5-induced killing of Candida albicans . Infect Immun 68 6848 6856 11083804 10 ||| ref 65, 66 = [65]; PMID 11204768; doi:10.1023/a:1026572128004; 65 van't Hoff W Reijnders I Helmerhorst E Walgreen-Weterings E Simoons-Smit I 2000 Synergistic effects of low doses of histatin 5 and its analogues on amphotericin B anti-mycotic activity. Antonie Van || [66]; PMID 16291868; doi:10.1093/jac/dki402; 66 Tanida T Okamoto T Ueta E Yamamoto T Osaki T 2006 Antimicrobial peptides enhance the candidacidal activity of antifungal drugs by promoting the efflux of ATP from Candida cells. J Antimicrob Chemot; settings: cited from earlier work
C. glabrata [9] = assay: FITC-Hst-5 localization in C. glabrata by fluorescence microscopy; assay type: cell-based, Candida glabrata; settings: 50 µM FITC-Hst-5, 30 minutes, 30°C, fixed exposure time 9 ms
Protocol: as §1, §2

S. cerevisiae [10] = assay: FITC-Hst-5 localization in S. cerevisiae by fluorescence microscopy; assay type: cell-based, Saccharomyces cerevisiae; settings: 50 µM FITC-Hst-5, 30 minutes, 30°C, fixed exposure time 9 ms
Protocol: as §1, §2

[11] = 50 and 200 µM FITC-m68, 30°C, 30 minutes

DSHAKRHHGYKREFHEKHHSHGGY [FITC-m68, FITC-labeled Hst-5 m68]
cytoplasmic localization (C. albicans cells [1]; 5, 10 and 20 µM FITC-m68, 30°C, 30 minutes (data not shown)): not observed
cellular localization (C. albicans cells [1]; [11]): localized to the vacuole in the majority of cells
cytoplasmic localization (C. albicans cells [1]; [11]): only seen in a small portion of the cell population

DSHAKRHHGYKRKFHEKHHSHRGY [FITC-Hst-5, FITC-labeled Hst-5]
population with cytoplasmic localization (C. albicans myo5 cells): 19.01%
population with plasma membrane localization (C. albicans myo5 cells): 80.99%
Percent of population: M2 (Hst-5 localized to the cytoplasm) (C. albicans cells [2]; 5 µM FITC-Hst-5, 30 minutes): 1.94%
Percent of population: M1 (Hst-5 localized to the vacuole) (C. albicans cells [2]; 5 µM FITC-Hst-5, 30 minutes): 96.02%
Percent of population: M2 (Hst-5 localized to the cytoplasm) (C. albicans cells [2]; 10 µM FITC-Hst-5, 30 minutes): 34.63%
Percent of population: M1 (Hst-5 localized to the vacuole) (C. albicans cells [2]; 10 µM FITC-Hst-5, 30 minutes): 64.02%
Percent of population: M2 (Hst-5 localized to the cytoplasm) (C. albicans cells [2]; 20 µM FITC-Hst-5, 30 minutes): 70.43%
Percent of population: M1 (Hst-5 localized to the vacuole) (C. albicans cells [2]; 20 µM FITC-Hst-5, 30 minutes): 29.69%
Percent of population: M2 (Hst-5 localized to the cytoplasm) (C. albicans cells [2]; 50 µM FITC-Hst-5, 30 minutes): 93.44%
Percent of population: M1 (Hst-5 localized to the vacuole) (C. albicans cells [2]; 50 µM FITC-Hst-5, 30 minutes): 6.50%

C[C@H](NC(=O)[C@H](Cc1cnc[nH]1)NC(=O)[C@H](CO)NC(=O)[C@@H](N)CC(=O)O)C(=O)N[C@@H](CCCCN)C(=O)N[C@@H](CCCNC(=N)N)C(=O)N[C@@H](Cc1cnc[nH]1)C(=O)N[C@@H](Cc1cnc[nH]1)C(=O)NCC(=O)N[C@@H](Cc1ccc(O)cc1)C(=O)N[C@@H](CCCCN)C(=O)N[C@@H](CCCNC(=N)N)C(=O)N[C@@H](CCCCN)C(=O)N[C@@H](Cc1ccccc1)C(=O)N[C@@H](Cc1cnc[nH]1)C(=O)N[C@@H](CCC(=O)O)C(=O)N[C@@H](CCCCN)C(=O)N[C@@H](Cc1cnc[nH]1)C(=O)N[C@@H](Cc1cnc[nH]1)C(=O)N[C@@H](CO)C(=O)N[C@@H](Cc1cnc[nH]1)C(=O)N[C@@H](CCCNC(=N)N)C(=O)NCC(=O)N[C@@H](Cc1ccc(O)cc1)C(=O)O [Hst-5, histatin-5]
lytic effect [3]: little lytic effect
colony formation of sorted cells with cytoplasmic Hst-5 (C. albicans cells [4]): none
cellular localization [5]: excluded from the lumen of vacuole-like membrane structures
resistance of the yeast to the peptide (S. cerevisiae [6]): marked resistance
resistance of the yeast to the peptide (C. glabrata [7]): marked resistance
cellular localization [8]: observed in the cytoplasm in a majority of the cells
killing of C. albicans in combination (C. albicans; combined with amphotericin B): strong synergistic killing
concentration that kills C. albicans in vitro (physiological concentrations) (C. albicans; in vitro): 15–30 µM
cellular localization (C. albicans cells [1]; 5 µM FITC-Hst-5, 30 minutes, fluorescence microscopy): mostly vacuolar localization
cellular localization (C. albicans cells [1]; 20 µM FITC-Hst-5, pH 4.5, 30 minutes, 30°C): a preponderance of cells had Hst-5 localized within the cytoplasm
cellular localization (C. albicans cells [1]; 20 µM FITC-Hst-5, pH 9.0, 30 minutes, 30°C): no cytoplasmic localization was observed
cellular localization (C. albicans cells [1]; 50 µM FITC-Hst-5, 30 minutes, fluorescence microscopy): largely cytoplasmic localization with little vacuolar fluorescence
cellular localization (C. glabrata [9]): predominantly localized to the vacuole
cellular localization (S. cerevisiae [10]): found bound to the cell surface

DSHAKRHHGYKREFHEKHHSHGGY [m68, variant of Hst-5 reported by Tsai et al.: lysine-13 replaced with glutamic acid and arginine 22 with glycine, reference compound]
killing ability relative to Hst-5 (C. albicans): significant reduction

From publication PMC2568956, “The Antimicrobial Peptide Histatin-5 Causes a Spatially Restricted Disruption on the Candida albicans Surface, Allowing Rapid Entry of the Peptide into the Cytoplasm” (PLoS Pathogens, 2008)
